Peptide text beside a SMILES is read from it.
What was measured:
[1] = system: spleen cells from a NMRI mouse; experiment: LAF assay, lymphocyte or thymocyte proliferating activity (3H-thymidine incorporation); format: cell-based; details: 48 h + 16 h with 3H-thymidine
purified pertussis toxin [2] = experiment: Immunization of mice with the synthetic peptide, ELISA of sera against native pertussis toxin; format: in vivo, mice (NMRI); details: sera two months after third dose
antibodies in human sera = experiment: ELISA, reaction between the synthetic peptide (BSA-coupled coating antigen) and antibodies in human sera; format: binding; details: swine anti-human conjugate 1/100, plates read after 20 min, peptide coupled to BSA as coating antigen
[3] = system: alkaline phosphatase swine anti-human IgG conjugate; experiment: ELISA, reaction between the synthetic peptide and conjugate only (swine anti-human); format: binding; details: no serum, plates read after 13 min
Protocol: (§1) The above synthesized peptide was coupled to a carrier, i.e. bovine serum albumin (BSA) in the following manner to form a peptide antigen (coating antigen) which was used in ELISA.
(§2) Fractions containing coupled material were pooled and the pooled material was used in ELISA as coating antigen and was added directly, without any previous dilution, to the microplate.
(§3) PERFORMANCE 1. Coating of microplates. Microplates were incubated with 0.1 ml of antigen in PBS at room temperature (20°-25° C.) over night.
(§4) 2. Incubation with bovine serum albumin (BSA) and serum. The plates were washed four times and then incubated with 0.1 ml of 1% (w/v) BSA in PBS at 37° C. for one hour. After washing, 0.1 ml of serum appropriately diluted in incubation buffer, was added to the wells and the plate(s) was incubated at room temperature for one hour.
(§5) 3. Incubation with conjugate. After washing, 0.1 ml of conjugate appropiately diluted in incubation buffer, was added to the wells and the plate(s) was incubated at room temperature for two hours.
(§6) 4. After washing, 0.1 ml of the enzyme substrate solution was added to the wells. The plates were kept at room temperature and the absorbance at 405 nm was read after the time indicated below. […]
(§7) The plates were read at times indicated below in an automated ELISA-reader (Titertek, Multiscan). […]

[4] = system: antibodies in rabbit sera; experiment: ELISA, reaction between the synthetic peptide (BSA-coupled coating antigen) and antibodies in rabbit sera; format: binding; details: goat anti-rabbit conjugate 1/500, plates read after 3 min, peptide coupled to BSA as coating antigen
alkaline phosphatase = experiment: Similar ELISA experiment where enzyme alone was used; format: binding; details: enzyme alone instead of conjugate
From the text: That the synthesized peptide reacted with and bound to the respective conjugate was further shown by the ability of the conjugates alone to bind the peptide.

purified pertussis toxin [5] = experiment: Challenge of immunized mice with purified pertussis toxin, survival; format: in vivo, mice (NMRI); details: challenge 20 μg/mouse=5×LD50
[6] = system: alkaline phosphatase goat anti-rabbit Ig conjugate; experiment: ELISA, reaction between the synthetic peptide and conjugate only (goat anti-rabbit); format: binding; details: no serum, plates read after 5 min
Protocol: as §1, §2, §3, §4, §5, §6, §7

With `CC(C)[C@H](NC(=O)[C@H](CO)NC(=O)[C@H](CCCNC(=N)N)NC(=O)[C@H](CCCNC(=N)N)NC(=O)[C@H](CO)NC(=O)[C@@H](NC(=O)[C@H](Cc1ccc(O)cc1)NC(=O)[C@@H]1CCCN1C(=O)[C@H](CC(N)=O)NC(=O)[C@@H]1CCCN1C(=O)[C@H](CC(N)=O)NC(=O)[C@H](C)NC(=O)[C@H](CCCNC(=N)N)NC(=O)[C@@H](NC(=O)[C@H](CCC(N)=O)NC(=O)[C@@H](N)CCCCN)[C@@H](C)O)[C@@H](C)O)C(=O)N[C@@H](C)C(=O)N[C@@H](CO)C(=O)O` [The synthetic peptide, H--Lys--Gln--Thr--Arg--Ala--Asn--Pro--Asn--Pro--Tyr--Thr----Ser--Arg--Arg--Ser--Val--Ala--Ser--OH] (H-KQTRANPNPYTSRRSVAS-OH) the “cpm (range of triplicates)” value ([1]; 1 μg per well) was 3000-4200 cpm, the “cpm (range of triplicates)” value ([1]; 10 μg per well) was 7000-8500 cpm and the “Mean Titre” value (purified pertussis toxin [2]; endpoint titre against pertussis toxin, cut off absorbance 0.1, 17 mice) was 2334. The “Titre Range” value (purified pertussis toxin [2]; endpoint titre against pertussis toxin, cut off absorbance 0.1) was 320-40960, the Responders (purified pertussis toxin [2]; of 17 mice, s.c. 3×0.5 ml BSA-coupled peptide antigen on aluminium hydroxide, one month apart) was 15 and the “Absorbance at 405 nm” value (antibodies in human sera; serum Human 1 (one individual) diluted 1/500) was 1.11. For the same molecule, the “Absorbance at 405 nm” value (antibodies in human sera; serum Human 2 (pool of human sera) diluted 1/500) was 1.26, the “Absorbance at 405 nm” value [3] was 0.84 and the “Absorbance at 405 nm” value ([4]; serum Rabbit 1 diluted 1/500) was 1.21. For the same molecule, the “Absorbance at 405 nm” value ([4]; serum Rabbit 2 diluted 1/500) was 1.05, the “Binding of the peptide to alkaline phosphatase enzyme alone” value (alkaline phosphatase) was “no binding was observed” and the “Days of survival (mean)” value (purified pertussis toxin [5]; immunized mice with endpoint titre 80-40960 (17 mice)) was 3.765 days. For the same molecule, the “Days of survival (mean)” value (purified pertussis toxin [5]; immunized mice with endpoint titre 320-40960 (15 mice)) was 4.000 days, the “Days of survival (mean)” value (purified pertussis toxin [5]; immunized mice with endpoint titre 640-40960 (14 mice)) was 3.929 days and the “Days of survival (mean)” value (purified pertussis toxin [5]; immunized mice with endpoint titre 1280-40960 (10 mice)) was 4.600 days. The “Days of survival (mean)” value (purified pertussis toxin [5]; immunized mice with endpoint titre 2560-40960 (8 mice)) was 4.875 days, the “Days of survival (mean)” value (purified pertussis toxin [5]; immunized mice with endpoint titre 5120-40960 (6 mice)) was 5.333 days and the “Days of survival (mean)” value (purified pertussis toxin [5]; immunized mice with endpoint titre 10240-40960 (3 mice)) was 6.333 days. The “Absorbance at 405 nm” value [6] was 1.23.
Phytohaemagglutinin [PHA] was tested, and the “cpm (range of triplicates)” value ([1]; 2.5 μg per well) was 6700-8100 cpm, the “cpm (range of triplicates)” value ([1]; 5 μg per well) was 9800-10400 cpm and the “cpm (range of triplicates)” value ([1]; 7 μg per well) was 7000-8100 cpm.
